According to US20220370416A1, “COMPOUNDS AND METHODS FOR TARGETED DEGRADATION OF KRAS” (Arvinas Operations, Inc., priority 2020, published 2022):

Biological target: HiBit-KRAS^G12C (Homo sapiens, UniProt P01116, G12C)
Assay: HiBit degradation assay in SW1573 HiBit-KRas^G12C cells
Assay type: cell-based
Parameters: expressed in transfected cells; host or cells: SW1573 (clone E6), modified pcDNA3.1 vector, TK promoter
Details: 0.1% DMSO, 24 hours; for DC50: SW1573 HiBit-KRas^G12C, read-out: KRas^G12C-HIBit (SW1573; 0.1% DMSO) DC50*; for Dmax: SW1573, SW1573 HiBit-KRas^G12C, read-out: KRas^G12C-HiBit (SW1573; 0.1% DMSO) Dmax**
Summary of the method: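 SW1573 cells stably expressing N-terminally HiBit-tagged KRAS G12C, under the TK promoter, were treated 24 h at 37 °C with 10 μM to 20 nM compound in 0.1% or 0.5% DMSO. Residual HiBit luminescence normalised to DMSO and fitted with a 4-parameter model for DC50 and Dmax. Points with ≥50% viability loss (alamar blue) excluded.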

Chain of HiBit-KRAS^G12C (P01116 1-186 isoform P01116-2 G12C limits assumed): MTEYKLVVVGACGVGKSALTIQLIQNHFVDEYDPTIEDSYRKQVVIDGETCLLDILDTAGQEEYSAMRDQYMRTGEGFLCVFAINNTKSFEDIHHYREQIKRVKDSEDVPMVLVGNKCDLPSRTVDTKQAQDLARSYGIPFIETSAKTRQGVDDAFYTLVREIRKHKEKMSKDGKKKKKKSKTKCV

DC50 [nM]	Dmax [%]	Compound
> 1000	–	C=CC(=O)N1CCN(c2nc(O[C@H](C)CN3CCC(OCCOCC(=O)N[C@H](C(=O)N4C[C@H](O)C[C@H]4C(=O)N[C@@H](C)c4ccc(-c5scnc5C)cc4)C(C)(C)C)CC3)nc3c(F)c(-c4c(O)cccc4F)c(Cl)cc23)C[C@H]1C [Compound 44, (2S,4R)-1-[(2S)-2-{2-[2-({1-[(2R)-2-{[6-chloro-8-fluoro-7-(2-fluoro-6-hydroxyphenyl)-4-[(3R)-3-methyl-4-(prop-2-enoyl)piperazin-1-yl]quinazolin-2-yl]oxy}propyl]piperidin-4-yl}oxy)ethoxy]acetamido}-3,3-dimethylbutanoyl]-4-hydroxy-N-[(1S)-1-[4-(4-methyl-1,3-thiazol-5-yl)phenyl]ethyl]pyrrolidine-2-carboxamide]
> 1000	–	C=CC(=O)N1CCN(c2nc(O[C@H](C)CN3CCC(CCCN4CCN(CC(=O)N[C@H](C(=O)N5C[C@H](O)C[C@H]5C(=O)N[C@@H](C)c5ccc(-c6scnc6C)cc5)C(C)(C)C)CC4)CC3)nc3c(F)c(-c4cc(O)cc5ccccc45)c(Cl)cc23)CC1 [Compound 56, (2S,4R)-1-[(2S)-2-{2-[4-(3-{1-[(2R)-2-{[6-chloro-8-fluoro-7-(3-hydroxynaphthalen-1-yl)-4-[4-(prop-2-enoyl)piperazin-1-yl]quinazolin-2-yl]oxy}propyl]piperidin-4-yl}propyl)piperazin-1-yl]acetamido}-3,3-dimethylbutanoyl]-4-hydroxy-N-[(1S)-1-[4-(4-methyl-1,3-thiazol-5-yl)phenyl]ethyl]pyrrolidine-2-carboxamide]
> 1000	–	C=CC(=O)N1CCN(c2nc(OCCN3CCC(OCCOCC(=O)N[C@H](C(=O)N4C[C@H](O)C[C@H]4C(=O)N[C@@H](C)c4ccc(-c5scnc5C)cc4)C(C)(C)C)CC3)nc3c(F)c(-c4cccc5cccc(C)c45)c(Cl)cc23)C[C@@H]1CC#N [Compound 23, (2S,4R)-1-[(2S)-2-{2-[2-({1-[2-({6-chloro-4-[(3S)-3-(cyanomethyl)-4-(prop-2-enoyl)piperazin-1-yl]-8-fluoro-7-(8-methylnaphthalen-1-yl)quinazolin-2-yl}oxy)ethyl]piperidin-4-yl}oxy)ethoxy]acetamido}-3,3-dimethylbutanoyl]-4-hydroxy-N-[(1S)-1-[4-(4-methyl-1,3-thiazol-5-yl)phenyl]ethyl]pyrrolidine-2-carboxamide]
> 1000	< 35	C=C(F)C(=O)N1CCN(c2nc(O[C@H](C)CN3CCC(COCC(=O)N[C@H](C(=O)N4C[C@H](O)C[C@H]4C(=O)N[C@@H](C)c4ccc(-c5scnc5C)cc4)C(C)(C)C)CC3)nc3c(F)c(-c4cc(O)cc5ccccc45)c(Cl)cc23)CC1 [Compound 27, (2S,4R)-1-[(2S)-2-[2-({1-[(2R)-2-({6-chloro-8-fluoro-4-[4-(2-fluoroprop-2-enoyl)piperazin-1-yl]-7-(3-hydroxynaphthalen-1-yl)quinazolin-2-yl}oxy)propyl]piperidin-4-yl}methoxy)acetamido]-3,3-dimethylbutanoyl]-4-hydroxy-N-[(1S)-1-[4-(4-methyl-1,3-thiazol-5-yl)phenyl]ethyl]pyrrolidine-2-carboxamide]
> 1000	–	C=CC(=O)N1CCN(c2nc(O[C@H](C)CN3CCC(OCCOCC(=O)N[C@H](C(=O)N4C[C@H](O)C[C@H]4C(=O)N[C@@H](C)c4ccc(-c5scnc5C)cc4)C(C)(C)C)CC3)nc3c(F)c(-c4cc(O)cc5ccccc45)c(Cl)cc23)CC1 (atropisomer, axis not shown) [Compound 85, (2S,4R)-1-[(2S)-2-{2-[2-({1-[(2R)-2-{[6-chloro-8-fluoro-7-(3-hydroxynaphthalen-1-yl)-4-[4-(prop-2-enoyl)piperazin-1-yl]quinazolin-2-yl]oxy}propyl]piperidin-4-yl}oxy)ethoxy]acetamido}-3,3-dimethylbutanoyl]-4-hydroxy-N-[(1S)-1-[4-(4-methyl-1,3-thiazol-5-yl)phenyl]ethyl]pyrrolidine-2-carboxamide]
> 1000	–	C=CC(=O)N1CCN(c2nc(OC[C@@H]3C[C@@H](OCCOCCOCCOCCOCCOCCOCC(=O)N[C@H](C(=O)N4C[C@H](O)C[C@H]4C(=O)N[C@@H](C)c4ccc(-c5scnc5C)cc4)C(C)(C)C)CN3C)nc3c2CCN(c2cccc4ccccc24)C3)C[C@@H]1CC#N [Compound 81, (2S,4R)-1-[(2S)-2-(20-{[(3R,5S)-5-[({4-[(3S)-3-(cyanomethyl)-4-(prop-2-enoyl)piperazin-1-yl]-7-(naphthalen-1-yl)-5H,6H,7H,8H-pyrido[3,4-d]pyrimidin-2-yl}oxy)methyl]-1-methylpyrrolidin-3-yl]oxy}-3,6,9,12,15,18-hexaoxaicosanamido)-3,3-dimethylbutanoyl]-4-hydroxy-N-[(1S)-1-[4-(4-methyl-1,3-thiazol-5-yl)phenyl]ethyl]pyrrolidine-2-carboxamide]
> 1000	–	C=CC(=O)N1CCN(c2nc(O[C@H](C)CN3CCC(COc4cc([C@H](C(=O)N5C[C@H](O)C[C@H]5C(=O)N[C@@H](C)c5ccc(-c6scnc6C)cc5)C(C)C)on4)CC3)nc3c(F)c(-c4cc(O)cc5ccccc45)c(Cl)cc23)CC1 [Compound 19, (2S,4R)-1-[(2R)-2-[3-({1-[(2R)-2-{[6-chloro-8-fluoro-7-(3-hydroxynaphthalen-1-yl)-4-[4-(prop-2-enoyl)piperazin-1-yl]quinazolin-2-yl]oxy}propyl]piperidin-4-yl}methoxy)-1,2-oxazol-5-yl]-3-methylbutanoyl]-4-hydroxy-N-[(1S)-1-[4-(4-methyl-1,3-thiazol-5-yl)phenyl]ethyl]pyrrolidine-2-carboxamide]
100 to 1000	< 35	C=CC(=O)N1CCN(c2nc(O[C@H](C)CN3CCC(OCCOCCOc4cc(-c5scnc5C)ccc4CNC(=O)[C@@H]4C[C@@H](O)CN4C(=O)[C@H](c4cc(C)no4)C(C)C)CC3)nc3c(F)c(-c4cc(O)cc5ccccc45)c(Cl)cc23)CC1 [Compound 71, (2S,4R)-N-[(2-{2-[2-({1-[(2R)-2-{[6-chloro-8-fluoro-7-(3-hydroxynaphthalen-1-yl)-4-[4-(prop-2-enoyl)piperazin-1-yl]quinazolin-2-yl]oxy}propyl]piperidin-4-yl}oxy)ethoxy]ethoxy}-4-(4-methyl-1,3-thiazol-5-yl)phenyl)methyl]-4-hydroxy-1-[(2S)-3-methyl-2-(3-methyl-1,2-oxazol-5-yl)butanoyl]pyrrolidine-2-carboxamide]
> 1000	35 to 70	C=CC(=O)N1CCN(c2nc(O[C@H](C)CN3CCC(OCCOCCOCCOCCOCCOc4cc(-c5scnc5C)ccc4CNC(=O)[C@@H]4C[C@@H](O)CN4C(=O)[C@@H](c4cc(C)no4)C(C)C)CC3)nc3c(F)c(-c4cc(O)cc5ccccc45)c(Cl)cc23)CC1 [Compound 80]
> 1000	35 to 70	C=CC(=O)N1CCN(c2nc(O[C@H](C)CN3CCC(OCCOCC(=O)N[C@H](C(=O)N4C[C@H](O)C[C@H]4C(=O)N[C@@H](C)c4ccc(-c5scnc5C)cc4)C(C)(C)C)CC3)nc3c(Oc4c(Cl)c(F)cc5[nH]ncc45)nc(Cl)cc23)CC1 [Compound 26, (2S,4R)-1-[(2S)-2-{2-[2-({1-[(2R)-2-({6-chloro-8-[(5-chloro-6-fluoro-1H-indazol-4-yl)oxy]-4-[4-(prop-2-enoyl)piperazin-1-yl]pyrido[3,4-d]pyrimidin-2-yl}oxy)propyl]piperidin-4-yl}oxy)ethoxy]acetamido}-3,3-dimethylbutanoyl]-4-hydroxy-N-[(1S)-1-[4-(4-methyl-1,3-thiazol-5-yl)phenyl]ethyl]pyrrolidine-2-carboxamide]
